Source: ChEMBL document CHEMBL1149012, “Effects of phenolic constituents from the mulberry tree on arachidonate metabolism in rat platelets” (J Nat Prod, 1986)
Active and inactive are the calls of the source. The calls are words filed in the database; no cut-off is given here.

Key:
[1] = test system: Platelet; experiment: Stimulation of 12-hydroxy-5,8,10,14-eicosatetraenoic acid formation in Wistar King platelets at 10 uM; type: functional, cell-based; conditions: Rattus norvegicus
[2] = test system: Platelet; experiment: Stimulation of 12-hydroxy-5,8,10,14-eicosatetraenoic acid formation in Wistar King platelets; type: functional, cell-based; conditions: Rattus norvegicus
[3] = test system: Platelet; experiment: Inhibition of 12-hydroxy-5,8,10-heptadecatrienoic acid formation in Wistar King platelets; type: functional, cell-based; conditions: Rattus norvegicus
[4] = test system: Platelet; experiment: Inhibition of thromboxane B2 formation in Wistar King platelets; type: functional, cell-based; conditions: Rattus norvegicus
[5] = test system: Platelet; experiment: Stimulation of 12-hydroxy-5,8,10,14-eicosatetraenoic acid formation in Wistar King platelets at 1 mM; type: functional, cell-based; conditions: Rattus norvegicus
[6] = test system: Platelet; experiment: Inhibition of 12-hydroxy-5,8,10,14-eicosatetraenoic acid formation in Wistar King platelets; type: functional, cell-based; conditions: Rattus norvegicus
[7] = test system: Platelet; experiment: Inhibition of 12-hydroxy-5,8,10,14-eicosatetraenoic acid formation in Wistar King platelets at 1 mM; type: functional; conditions: Rattus norvegicus
[8] = test system: Platelet; experiment: Inhibition of 12-hydroxy-5,8,10-heptadecatrienoic acid formation in Wistar King platelets at 1 mM; type: functional; conditions: Rattus norvegicus
[9] = test system: Platelet; experiment: Inhibition of thromboxane B2 formation in Wistar King platelets at 1 mM; type: functional; conditions: Rattus norvegicus
[10] = test system: Platelet; experiment: Inhibition of 12-hydroxy-5,8,10,14-eicosatetraenoic acid formation in Wistar King platelets at 0.1 mM; type: functional; conditions: Rattus norvegicus, values are per cent of control
[11] = test system: Platelet; experiment: Stimulation of 12-hydroxy-5,8,10,14-eicosatetraenoic acid formation in Wistar King platelets at 0.1 mM; type: functional, cell-based; conditions: Rattus norvegicus

| Structure (SMILES) | Activity [1] | Activity [2] | IC50 [3] [µM] | IC50 [4] [µM] | Activity [5] | inhibition at 1000 µM [7] [%] | further results |
| --- | --- | --- | --- | --- | --- | --- | --- |
| CC(C)=CCc1c(O)ccc(C(=O)[C@@H]2[C@@H](c3c(O)cc(O)c4c(=O)c(CC=C(C)C)c(-c5ccc(O)cc5O)oc34)C=C(C)C[C@H]2c2ccc(O)cc2O)c1O [KUMANON H] | Active | Active | 24 | 75.7 | Active |  |  |
| CC1=C[C@H]2c3c(O)cc(-c4cc5ccc(O)cc5o4)cc3O[C@@]3(c4ccc(O)cc4O)Oc4cc(O)ccc4[C@H](C1)[C@@H]23 [MULBERROFURAN G] |  |  | 10.7 | 34.7 |  |  | IC50 [6]: 89 µM |
| CC(C)=CCc1c(-c2ccc(O)cc2O)oc2c([C@H]3Oc4cc(O)c5c(=O)c(CC=C(C)C)c(-c6ccc(O)cc6O)oc5c4[C@@H]4C=C(C)CC(C)(C)[C@H]34)c(O)cc(O)c2c1=O [KUMANON M] |  |  |  |  |  | 68 | inhibition at 1000 µM [8]: 81.5%; inhibition at 1000 µM [9]: 87.3% |
| CC(C)=CCC12Oc3cc(O)ccc3C1(O)Oc1cc(O)c([C@H]3C=C(C)C[C@@H](c4ccc(O)cc4O)[C@@H]3C(=O)c3ccc(O)cc3O)c(O)c1C2=O (stereo not given in full) [SANGGENON D] |  |  | 43.3 | 48.3 |  | 51 | residual activity at 100 µM [10]: 256%; Activity [11]: Active |
| CC1=C[C@H](c2c(O)cc(-c3cc4ccc(O)cc4o3)cc2O)[C@@H](C(=O)c2ccc(O)cc2O)[C@H](c2ccc(O)cc2O)C1 [MULBERROFURAN J] |  |  | 36.3 | 50.7 |  | 35.5 | IC50 [6]: 823 µM; residual activity at 100 µM [10]: 194%; Activity [11]: Active |
| CC(C)=CCc1c(-c2ccc(O)cc2O)oc2c([C@H]3C=C(C)C[C@@H](c4ccc(O)cc4O)[C@@H]3C(=O)c3ccc(O)cc3O)c(O)cc(O)c2c1=O [KUMANON G] | Active | Active | 89.3 | 132 | Active |  |  |
| CC(C)=CC[C@]12Oc3cc(O)c([C@H]4C=C(C)C[C@H](c5ccc(O)cc5O)[C@H]4C(=O)c4ccc(O)cc4O)c(O)c3C(=O)[C@@]1(O)Oc1cc(O)ccc12 [SANGGENON C] | Active | Active | 112 | 180 | Active |  |  |
| OC[C@H]1O[C@@H](Oc2cc(O)cc(/C=C/c3ccc(O[C@@H]4O[C@H](CO)[C@@H](O)[C@H](O)[C@H]4O)cc3O)c2)[C@H](O)[C@@H](O)[C@@H]1O |  |  |  |  |  |  | Activity [6]: inactive; Activity [3]: inactive; Activity [4]: inactive |
| CC12C[C@@H](c3ccc(O)cc3O1)C13OC1(c1ccc(O)cc1O)Oc1cc(-c4cc5ccc(O)cc5o4)cc(O)c1C3C2=O (stereo not given in full) [MULBERROFURAN Q] | Active | Active | 227 | 355 | Active |  |  |
